Measurements taken from PubChem BioAssay AID1195 (EPA DSSTox, 2008).

System: human maximum recommended daily dose, FDA database
Assay: DSSTox (FDAMDD) FDA Maximum (Recommended) Daily Dose Database
Settings: active compounds read low
Source text: The Food and Drug Administration (FDA) Center for Drug Evaluation and Research, Office of Pharmaceutical Science, Informatics and Computational Safety Analysis Staff's Maximum Recommended Daily Dose (FDAMDD) database contains values for over 1200 pharmaceuticals listed in Martindale: The Extra Pharmacopoeia (1973, 1983, and 1993) and The Physicians' Desk Reference (1995 and 1999). Some classes of chemicals were excluded from the FDAMDD database due to their unsuitability for most QSAR modeling programs. These were inorganic chemicals, high molecular weight polymers (>5000 Daltons), fibers, salts, mixtures of organic chemicals, and small molecules (<100 Daltons). FDAMDD is the non-proprietary portion of the database that was used in the QSAR analysis reported in the Main Citation. DSSTox FDAMDD has fewer substance records than the original MRDD Source database due to consolidation of partial structures (i.e., complexed entities) into a single record and elimination of duplicate entries. DSSTox FDAMDD also differs from the MRDD Source database in presenting complete structural information pertaining to the actual salt or complexed form corresponding to the listed ChemicalName and CASRN. According to the Source authors, there are a number of cases where multiple related forms or derivatives of a drug were listed as separate records but were assumed to fall under the same clinical toxicity assessment and, therefore, assigned the same Dose_MRDD_mg activity value. For the DSSTox FDAMDD, we have labeled these derivatives in the ChemClass_MRDD_grouping field and provide their counts in the ChemicalReplicateCount field to highlight their special nature.
Maximum recommended daily dose (or maximum recommended therapeutic dose) values were determined from pharmaceutical clinical trials that employed an oral route of exposure and daily treatments, usually for 3-12 months. Drugs were given as single or divided dose treatment regimens to achieve desired pharmacological effects. Roughly 5% of the pharmaceuticals in the FDAMDD data file were antineoplastics and anesthetics and were administered intravenously and/or intramuscularly. When separate MRDDs were reported for different routes of exposure, only the oral MRDD was included in the data file and only MRDD values reported for the average adult patient were used. Pharmaceuticals that are administered orally are usually tested over a limited range of doses and have MRDDs reported as mg/day. The mg/day unit was converted to mg/kg-body weight (bw)/day based upon an average adult weighing 60 kg. In contrast, the dose unit for most antineoplastic drug MRDDs is reported as mg/m2 which was converted to mg/kg-bw/day using the formula mg/kg-bw/day = mg/m2/37 for an average adult. Additionally, a few drugs had MRDDs reported in parts per million (ppm) which were converted to mg/kg-bw/day on the basis that 1000 ppm equals 25 mg/kg-bw/day for an average 60 kg adult. Activity Score is mapping of LOG10(1/Dose_MRDD_mmol) spanning activity range [MIN, MAX] onto Integer 1-100 Activity range, where 100 is highest potency and 1 is lowest potency: ActivityScore = 100 * INTEGER[(LOGINV_MRDD_mmol - MIN)/(MAX […] MIN)]. Activity Outcome is "active" for all substances, since Dose_MRDD_mmol is reported for all substances.

[1] = TherapeuticCategory: sedative, hypnotic
[2] = TherapeuticCategory: antibacterial
[3] = TherapeuticCategory: anxiolytic

SMILES: OCC(Br)(Br)Br
- maximum recommended daily dose (mmol/kg-bw/day) (TherapeuticCategory: anesthetic): 0.354

SMILES: O=P(O)(O)OCC(Cl)(Cl)Cl
- maximum recommended daily dose (mmol/kg-bw/day) [1]: 0.145

SMILES: CN1C(=O)CCS(=O)(=O)C1c1ccc(Cl)cc1 (configuration not stated)
- maximum recommended daily dose (mmol/kg-bw/day) (TherapeuticCategory: anxiolytic, skeletal muscle relaxant): 0.0244

SMILES: CCN(CC)CC#CCOC(=O)C(O)(c1ccccc1)C1CCCCC1 (configuration not stated)
- maximum recommended daily dose (mmol/kg-bw/day) (TherapeuticCategory: anticholinergic): 0.000932

SMILES: c1ccc(CC2=NCCN2)cc1
- maximum recommended daily dose (mmol/kg-bw/day) (TherapeuticCategory: antiadrenergic): 0.0125

SMILES: NNC(=O)c1ccncc1
- maximum recommended daily dose (mmol/kg-bw/day) [2]: 0.0729

SMILES: COC1=CC(=O)C[C@@H](C)[C@]12Oc1c(Cl)c(OC)cc(OC)c1C2=O
- maximum recommended daily dose (mmol/kg-bw/day) (TherapeuticCategory: antifungal): 0.0354

SMILES: CN1CCC(CN2c3ccccc3Sc3ccccc32)C1 (configuration not stated)
- maximum recommended daily dose (mmol/kg-bw/day) (TherapeuticCategory: antipruritic): 0.00169

SMILES: Cc1cc(C(=O)NNCc2ccccc2)no1
- maximum recommended daily dose (mmol/kg-bw/day) (TherapeuticCategory: antidepressant): 0.00432

SMILES: O=C(O)CCC(=O)c1ccc(-c2ccccc2)cc1
- maximum recommended daily dose (mmol/kg-bw/day) (TherapeuticCategory: anti inflammatory): 0.059

SMILES: C=CCC1(C(C)CC)C(=O)NC(=O)NC1=O (configuration not stated)
- maximum recommended daily dose (mmol/kg-bw/day) [1]: 0.0148

SMILES: N[C@@H](Cc1ccc(O)c(O)c1)C(=O)O
- maximum recommended daily dose (mmol/kg-bw/day) (TherapeuticCategory: antiparkinsonian): 0.674

SMILES: NS(=O)(=O)c1cc(Cl)c(Cl)c(S(N)(=O)=O)c1
- maximum recommended daily dose (mmol/kg-bw/day) (TherapeuticCategory: carbonic anhydrase inhibitor): 0.0109

SMILES: CC(C)(Oc1ccc(Cl)cc1)C(=O)NC(=O)NCN1CCOCC1
- maximum recommended daily dose (mmol/kg-bw/day) (TherapeuticCategory: antithrombotic): 0.112

SMILES: CN1CCN(CCC=C2c3ccccc3Sc3ccc(S(=O)(=O)N(C)C)cc32)CC1
- maximum recommended daily dose (mmol/kg-bw/day) (TherapeuticCategory: antipsychotic, dopamine receptor antagonist): 0.00113

SMILES: CCCCCCC(C)(C)c1cc(O)c2c(c1)OC(C)(C)[C@@H]1CCC(=O)C[C@@H]21
- maximum recommended daily dose (mmol/kg-bw/day) (TherapeuticCategory: antiemetic): 0.000268

SMILES: C[C@]12C=CC(=O)C=C1CC[C@@H]1[C@@H]2[C@@H](O)C[C@@]2(C)[C@H]1CC[C@]2(O)C(=O)CO
- maximum recommended daily dose (mmol/kg-bw/day) (TherapeuticCategory: glucocorticoid): 0.00924

SMILES: O=C1CN2CCOC2(c2ccccc2F)c2cc(Cl)ccc2N1CCO (configuration not stated)
- maximum recommended daily dose (mmol/kg-bw/day) [3]: 0.000531

SMILES: CC(=O)Nc1ccc(OC(=O)c2ccccc2OC(C)=O)cc1
- maximum recommended daily dose (mmol/kg-bw/day) (TherapeuticCategory: analgesic, antipyretic, anti inflammatory): 0.425

SMILES: Cc1nc(NS(=O)(=O)c2ccc(N)cc2)oc1C
- maximum recommended daily dose (mmol/kg-bw/day) [2]: 0.125

SMILES: CC(=O)O[C@H]1CC[C@@]2(C)C(=CC[C@@H]3[C@@H]2CC[C@]2(C)C(=O)CC[C@@H]32)C1
- maximum recommended daily dose (mmol/kg-bw/day) (TherapeuticCategory: androgen): 0.0101

SMILES: CC(=O)c1ccc(S(=O)(=O)NC(=O)NC2CCCCC2)cc1
- maximum recommended daily dose (mmol/kg-bw/day) (TherapeuticCategory: antidiabetic): 0.0771

SMILES: CC(C)(C)NCC(O)c1cc(Cl)c(N)c(Cl)c1 (configuration not stated)
- maximum recommended daily dose (mmol/kg-bw/day) (TherapeuticCategory: antiasthmatic): 3.61e-06

SMILES: CCc1cc2c(s1)N(C)C(=O)CN=C2c1ccccc1Cl
- maximum recommended daily dose (mmol/kg-bw/day) [3]: 0.00314

SMILES: CC(=O)c1ccc2c(c1)N(CCCN1CCN(CCO)CC1)c1ccccc1S2
- maximum recommended daily dose (mmol/kg-bw/day) (TherapeuticCategory: antipsychotic): 0.0243

SMILES: CC(=O)CC(c1ccc([N+](=O)[O-])cc1)c1c(O)c2ccccc2oc1=O (configuration not stated)
- maximum recommended daily dose (mmol/kg-bw/day) (TherapeuticCategory: anticoagulant): 0.000566

SMILES: CC(C)COCC(CN(Cc1ccccc1)c1ccccc1)N1CCCC1 (configuration not stated)
- maximum recommended daily dose (mmol/kg-bw/day) (TherapeuticCategory: antianginal): 0.0182

SMILES: NC(CO)(CO)CO
- maximum recommended daily dose (mmol/kg-bw/day) (TherapeuticCategory: alkalizer): 2.48

SMILES: COc1cc([C@@H]2c3cc4c(cc3C(O[C@@H]3O[C@@H]5COC(c6cccs6)O[C@H]5[C@H](O)[C@H]3O)C3COC(=O)[C@@H]32)OCO4)cc(OC)c1O (some centres not stated)
- maximum recommended daily dose (mmol/kg-bw/day) (TherapeuticCategory: antineoplastic): 0.0107

SMILES: Nc1ncnc2c1ncn2[C@@H]1O[C@H](COP(=O)(O)O)[C@@H](O)[C@H]1O
- maximum recommended daily dose (mmol/kg-bw/day) (TherapeuticCategory: antiarrhythmic): 0.000959

SMILES: O=C(Oc1ccccc1C(=O)O)c1ccccc1O
- maximum recommended daily dose (mmol/kg-bw/day) (TherapeuticCategory: analgesic, anti inflammatory): 0.258

SMILES: C[C@H]1CC[C@@H]2N(C1)C[C@@H]1[C@H]([C@@H](O)[C@H](O)[C@]3(O)[C@H]1C[C@@]14O[C@@]5(O)[C@@H]([C@@H](O)[C@@H](O)[C@@H]31)[C@]4(C)CC[C@@H]5O)[C@]2(C)O
- maximum recommended daily dose (mmol/kg-bw/day) (TherapeuticCategory: none): 4.76e-05
